Measurements taken from patent US10071076B2, “Methods of treating cancer and other disorders” (Wake Forest University Health Sciences, priority 2010, dated 2018).

Columns and labels:
[1] = target: recombinant thioesterase TE1 (recombinant FASN-TE) (Homo sapiens, UniProt P49327); assay: Recombinant thioesterase inhibition assay (TE1); format: biochemical; conditions: for inhibition at 10 µM: 10 μM compound, 30 min pre-incubation at 37° C., 4-MUH substrate; for IC50: recombinant thioesterase, approximate, read-out: approx, IC50 TE1
Description: (§1) Key to Table 2: Recombinant Thioesterase Inhibition Assay.
(§2) Briefly, recombinant FASN-TE (250 nM, 100 mM TRIS pH 7.4, 50 mM NaCl, 1 mM EDTA) was pre-incubated with inhibitors for 30 min at 37° C. prior to the addition of fluorogenic substrate, 4-methylumbelliferyl heptanoate (4-MUH, 120 μM) (56); the reaction was then monitored by following the increase in fluorescence using a Tecan Safire^2 96-well plate reader using 350/450 excitation/emission wavelengths. The IC50 values are then determined for each compound in the series.

[2] = target: recombinant thioesterase TE2 (recombinant FASN-TE) (Homo sapiens, UniProt P49327); assay: Recombinant thioesterase inhibition assay (TE2); format: biochemical; conditions: for inhibition at 10 µM: 10 μM compound, 30 min pre-incubation at 37° C., 4-MUH substrate; for IC50: recombinant thioesterase, approximate, read-out: approx, IC50 TE2
Description: as §1, §2

[3] = system: intracellular FASN in PC3 cells; assay: Inhibition of 14C-acetate incorporation in PC3 cells; format: cell-based; conditions: for % inhibition of 14C-acetate incorp. PC3 cells: two hours drug, then two hour labeling, concentration not given
Description: Inhibition of ^14C-Acetate Incorporation in PC3 Cells.
This test ensures that the compound(s) target intracellular FASN correctly. The ability to inhibit FASN activity in cells will be performed by metabolic labeling of newly synthesized fatty acids with ^14C-acetate, as we have described previously. Briefly, PC-3 cells were seeded in 24-well plates at 50,000 cells per well. After 48 hours media was replaced with fresh media containing either drug or DMSO vehicle. As with the toxicity assay described below, the IC50 for the ability to inhibit FASN will also be determined. Cells will be incubated with a dose of each derivative compound that reflects the IC50's determined in the MTS assays. After two hours, 1 μCi of ^14C-acetate was added to each well for a two hour labeling period. The cells are then washed with PBS and collected by trypsinization. Lipids were finally isolated by Folch extraction and quantified by scintillation counting. The IC50 value for each compound against FASN in cells can then be determined.

PC3 prostate tumor cells = assay: MTS cell survival assay, PC3; format: cell-based; conditions: doses 1-50 μM, time point not given
Description: (§3) Prostate tumor (PC3, DU145) and normal fibroblast controls (FS-4) cells were individually seeded in 96-well plates at a density of 4,000 cells per well. After 48 hours the cells are be treated with a dose of each compound (1-50 μM) or DMSO vehicle in fresh media. Cell viability of each cell line was then determined after 24, 48 and 72 hours of treatment with each compound by MTS assay (Roche). MTS assays provide a relative measure of cell viability based on the ability of mitochondria to metabolize a tetrazolium substrate to a colored formazan product. Viability is determined by colorimetric readout at 492 nm and determined relative to vehicle only treated cells. The IC50 for each drug, at each time point, will be determined by curve fitting.

[4] = system: DU-145 prostate tumor cells; assay: MTS cell survival assay, DU-145; format: cell-based; conditions: Homo sapiens, doses 1-50 μM, time point not given
Description: as §3

[5] = system: FS-4 normal fibroblast cells; assay: MTS cell survival assay, FS-4; format: cell-based; conditions: FS-4 normal fibroblasts, doses 1-50 μM, time point not given
Description: as §3

Sequence of recombinant thioesterase TE2 (recombinant FASN-TE) (P49327 2200-2511): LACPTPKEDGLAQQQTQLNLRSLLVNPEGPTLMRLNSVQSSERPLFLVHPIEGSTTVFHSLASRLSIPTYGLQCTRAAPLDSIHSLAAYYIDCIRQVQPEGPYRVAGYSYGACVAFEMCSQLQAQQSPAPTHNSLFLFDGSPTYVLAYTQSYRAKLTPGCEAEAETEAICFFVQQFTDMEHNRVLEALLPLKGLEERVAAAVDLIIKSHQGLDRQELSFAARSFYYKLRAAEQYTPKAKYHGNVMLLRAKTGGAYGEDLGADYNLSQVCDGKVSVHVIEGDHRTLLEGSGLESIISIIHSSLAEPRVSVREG
Sequence of recombinant thioesterase TE1 (recombinant FASN-TE) (P49327 2207-2511 limits assumed): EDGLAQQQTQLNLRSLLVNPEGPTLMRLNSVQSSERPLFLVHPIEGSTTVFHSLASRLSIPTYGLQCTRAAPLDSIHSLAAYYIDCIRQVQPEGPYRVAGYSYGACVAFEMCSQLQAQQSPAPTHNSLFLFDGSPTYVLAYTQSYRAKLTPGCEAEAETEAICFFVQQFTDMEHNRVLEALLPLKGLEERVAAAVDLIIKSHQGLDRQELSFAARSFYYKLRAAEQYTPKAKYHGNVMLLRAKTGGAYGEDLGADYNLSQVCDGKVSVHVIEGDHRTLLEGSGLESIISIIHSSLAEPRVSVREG

Row | SMILES | inhibition at 10 µM [1] | inhibition at 10 µM [2] | % inhibition of 14C-acetate incorp. PC3 cells [3] | IC50 (PC3 prostate tumor cells) | IC50 [4] | IC50 [1] | IC50 [2] | IC50 [5] | IC50 ([3]; Homo sapiens, PC-3, read-out: IC50 of inhibition of 14C-acetate incorp. PC3 cells)
1 | COc1cc(O)c2onc(-c3ccccc3)c2c1O [TPI-00401-00-A] | 40% | 55.9% | 29.1% | 33 µM | > 50 µM | – | – | – | –
2 | C=C1C=C(SCC)C(=O)c2c(C(=O)OCC)n[nH]c21 [TPI-00402-00-A] | 66.6% | 95.7% | 90.4% | 18.8 µM | 40 µM | ~2.35 µM | ~0.56 µM | 20.9 µM | –
3 | C=C1C=C(S)C(=O)c2c(C(=O)OCC)n[nH]c21 [TPI-00403-00-A] | 69.3% | 79.3% | 97% | 3.25 µM | 15.6 µM | ~3.9 µM | ~2.42 µM | 9.15 µM | 6.75 µM
4 | CCOC(=O)c1n[nH]c2c1C(=O)C(SCC(=O)OC)=CC2=O [TPI-00405-00-A] | 69.5% | 96.8% | – | – | – | ~2.78 µM | ~0.41 µM | – | –
5 | CCOC(=O)c1n[nH]c2c1C(=O)C(SCc1cccc(F)c1)=CC2=O [TPI-00406-00-A] | 73.6% | 96% | 37.7% | – | – | – | – | – | –
6 | CCOC(=O)c1n[nH]c2c1C(=O)C(SCc1ccc(F)cc1F)=CC2=O [TPI-00407-00-A] | 66% | 94.9% | 37.8% | – | – | – | – | – | –
7 | CCOC(=O)c1n[nH]c2c1C(=O)C(SCc1ccc(C(F)(F)F)cc1)=CC2=O [TPI-00408-00-A] | 67.9% | 96.2% | 89.9% | 18.5 µM | – | – | – | 22.5 µM | –
8 | CCOC(=O)c1n[nH]c2c1C(=O)C(SCC(=O)NC)=CC2=O [TPI-00409-00-A] | 53.5% | 92.2% | 0% | – | – | – | – | – | –
9 | CCOC(=O)c1n[nH]c2c1C(=O)C(SCCCCO)=CC2=O [TPI-00410-00-A] | 59.6% | 91.7% | 1.85% | – | – | – | – | – | –
10 | CCOC(=O)c1n[nH]c2c1C(=O)C(Sc1ccc(-c3ccccc3)cc1)=CC2=O [TPI-00411-00-A] | 70.5% | 97.4% | 0.75% | – | – | – | – | – | –
11 | CCOC(=O)c1n[nH]c2c1C(=O)C(Sc1cccc(OC)c1)=CC2=O [TPI-00412-00-A] | 81.6% | 98% | 9.95% | – | – | – | – | – | –
12 | CCOC(=O)c1n[nH]c2c1C(=O)C(SCCOCCOC)=CC2=O [TPI-00413-00-A] | 50.2% | 94.8% | 20.2% | – | – | – | – | – | –
13 | CCOC(=O)c1n[nH]c2c1C(=O)C(SC1CCCC1)=CC2=O [TPI-00414-00-A] | 52.2% | 86.4% | 92.4% | 25 µM | – | – | – | 33 µM | –
14 | CCOC(=O)c1n[nH]c2c1C(=O)C(Sc1ccccc1)=CC2=O [TPI-00415-00-A] | 79.7% | 97.5% | 7.05% | – | – | – | – | – | –
15 | CCOC(=O)c1n[nH]c2c1C(=O)C(SCc1ccc(OC)cc1)=CC2=O [TPI-00416-00-A] | 64.3% | 96.5% | 89.9% | 25.8 µM | – | – | – | 33 µM | –
16 | CCOC(=O)c1n[nH]c2c1C(=O)C(SCc1ccc(Cl)cc1)=CC2=O [TPI-00417-00-A] | 74.8% | 97.8% | 96.1% | 13.8 µM | – | – | – | 21 µM | –
17 | CCOC(=O)c1n[nH]c2c1C(=O)C(SCc1ccco1)=CC2=O [TPI-00418-00-A] | 65.5% | 95.9% | 92.2% | 31.7 µM | – | – | – | 37 µM | –
18 | CCCCCCCSC1=CC(=O)c2[nH]nc(C(=O)OCC)c2C1=O [TPI-00419-00-A] | 66.2% | 95.8% | 67.95% | 32 µM | – | – | – | 50 µM | –
19 | CCOC(=O)c1n[nH]c2c1C(=O)C(SCCC(=O)OC)=CC2=O [TPI-00420-00-A] | 62% | 95.3% | 68.5% | 37.5 µM | – | – | – | 42 µM | –
20 | CNC(=O)CSC1=CC(=O)c2[nH]ncc2C1=O [TPI-00421-00-A] | 100% | 100% | 70% | 17.9 µM | – | ~1.02 µM | – | 41 µM | –
21 | CCOC(=O)c1n[nH]c2c1C(=O)C(SCC(=O)Nc1ccccc1)=CC2=O [TPI-00422-00-A] | 22.9% | 86.8% | 0% | 48 µM | – | – | – | > 50 µM | –
22 | O=C(Nc1ccccc1)c1n[nH]c2c1C(=O)C(SCCCCO)=CC2=O [TPI-00423-00-A] | 79.8% | 98% | 87.25% | 20 µM | – | – | – | 25 µM | –
23 | O=C(Nc1ccccc1)c1n[nH]c2c1C(=O)C(SCc1ccc(C(F)(F)F)cc1)=CC2=O [TPI-00424-00-A] | 92.6% | 100% | 0% | 27 µM | – | – | – | 50 µM | –
